For experiment [1], the system named is MCA205 tumours. As to the kind of experiment: Established MCA205 tumours in immunodeficient mice. It is filed as in vivo. Conditions: athymic (nu/nu) mice; 0.18 mg/kg i.v. day 1, 7 and 14. On the procedure:
Live MCA205 cells were injected subcutaneously (s.c.) into immunocompetent C57BL/6 mice or immunodeficient nu/nu mice as depicted in the scheme in (a) When tumours became palpable, mice were intravenously ([…]). Tumour growth was assessed regularly for the following 30 days. Data is depicted as tumour growth curves (b,d) and overall survival plots (c,e). Data were analyzed with TumGrowth.
In order to assess the capacity of lurbinectedin to stimulate anticancer immunity in a monotherapeutic approach and to convert tumour cells into a therapeutic vaccine we exposed murine fibrosarcoma cells to the drug in vitro (in conditions previously established to induce a sufficient amplitude of cell death) and then injected the dying cancer cells into syngeneic immunocompetent mice. […] Next we evaluated the effect of lurbinectedin on established cancers growing on immunocompetent or immunodeficient mice. […]
Six- to eight-week-old female wild-type C57BL/6 and nu/nu mice were obtained from Envigo France (Huntingdon, UK) and were kept in the animal facility at the Gustave Roussy Campus Cancer in a specific pathogen-free and temperature-controlled environment with 12 h day, 12 h night cycles and received food and water ad libitum. […] Animals were monitored and tumour growth documented regularly until end-points were reached. […]

The test system of experiment [2] is mRNA transcription in U2OS cells. As to the kind of experiment: Transcription level by nucleolin/fibrillarin colocalization. It counts as cell-based, human. To be noted: 10, 50 or 100 nM, actinomycin D as control. How it is done:
Human osteosarcoma U2OS cells were treated with 10, 50 or 100 nM lurbinectedin (Lurbi) for 6 hours. Thapsigargin (Thaps, 3 μM) was used as a positive control. The cells were fixed with 3.7% PFA and DNA was stained with 1 μM Hoechst 33342. Following the phosphorylation of the eukaryotic translation initiation factor 2 alpha (eIF2a) was assessed with phosphoneoepitope-specific antibody and was monitored by means of automated microscopy as an increase in cytoplasmic fluorescence intensity. (a,b) The level of transcription was measured in U2OS cell treated as above with Lurbi. The transcription inhibitor actinomycin D (ActD) was used as a control. The cells were fixed as above and following the colocalization of nucleolin and fibrillarin was assessed as an indicator for transcriptional activity (c,d) Scale bar equals 10 μm and bar charts depict mean values±SD of quadruplicate assessments (*p<0.01; *p<0.001, two-tailed Student's t test).
In a systematic screening campaign, the capacity of lurbinectedin to induce immunogenic cell death in cancer cells was assessed in human osteosarcoma U2OS cells stably expressing fluorescent biosensors for the detection of CALR-relocation (as a surrogate marker for CALR surface exposure), HMGB1 release and Type I IFN responses together with U2OS WT cells stained with the ATP-sensitive dye quinacrine. […]

On to `COc1ccc2[nH]c3c(c2c1)CCN[C@]31CS[C@@H]2c3c(OC(C)=O)c(C)c4c(c3[C@H](COC1=O)N1[C@@H]2[C@H]2c3c(cc(C)c(OC)c3O)C[C@@H]([C@@H]1O)N2C)OCO4` [lurbinectedin], for which the “therapeutic effect (tumour growth, overall survival)” value in experiment [1] is on record as “lost”. Further, the “mRNA transcription (dissociation of nucleolin and fibrillarin)” value in experiment [2] is recorded as “inhibited mRNA transcription at a level comparable to a known transcription-inhibitor”.

The record behind these values is patent publication US20250295656A1, “COMBINATION OF LURBINECTEDIN AND IMMUNE CHECKPOINT INHIBITORS” (priority 2020, published 2025).
